{"source": "paper PMC11823630", "about": "“In vitro potentiation of tetracyclines in Pseudomonas aeruginosa by RW01, a new cyclic peptide” (Antimicrobial Agents and Chemotherapy, 2024)", "key": {"[1]": {"test_system": "PAO1 mutant MIN4_RW01_4, pmrB(Y98N)", "experiment": "MIC, E-test on MHA", "assay_type": "cell-based", "details": "Pseudomonas aeruginosa, PAO1, read-out: MIC, E-test"}, "[2]": {"test_system": "PAO1 mutant MIN16_1, nalD(T43P)", "experiment": "MIC, E-test on MHA", "assay_type": "cell-based", "details": "Pseudomonas aeruginosa, PAO1, read-out: MIC, E-test"}, "[3]": {"test_system": "P. aeruginosa PAO1", "experiment": "MIC in the presence of 25% mouse serum", "details": "PAO1, 25% non-inactivated C57BL/6RJ mouse serum"}, "[4]": {"test_system": "PAO1 mutant MIN32_1, mexR(R63H), pilB(N349K), PA0646(V316G)", "experiment": "MIC, E-test on MHA", "assay_type": "cell-based", "details": "Pseudomonas aeruginosa, PAO1, read-out: MIC, E-test"}, "[5]": {"test_system": "PAO1 mutant MIN1_RW01_3, pmrB(V215L)", "experiment": "MIC, E-test on MHA", "assay_type": "cell-based", "details": "Pseudomonas aeruginosa, PAO1, read-out: MIC, E-test"}, "[6]": {"test_system": "PAO1 mutant MIN8_4, pilZ(nt18InsT)", "experiment": "MIC, E-test on MHA", "assay_type": "cell-based", "details": "Pseudomonas aeruginosa, PAO1, read-out: MIC, E-test"}, "[7]": {"test_system": "P. aeruginosa 125A", "experiment": "MIC, CLSI broth microdilution in BD Phoenix AST Broth", "assay_type": "cell-based, Pseudomonas aeruginosa", "details": "strain 125A"}, "[8]": {"test_system": "P. aeruginosa PAOUW∆oprF", "experiment": "MIC, CLSI broth microdilution in BD Phoenix AST Broth", "assay_type": "cell-based, Pseudomonas aeruginosa"}, "[9]": {"test_system": "P. aeruginosa PAOΔoprM", "experiment": "MIC, CLSI broth microdilution in BD Phoenix AST Broth", "assay_type": "cell-based, Pseudomonas aeruginosa"}, "[10]": {"test_system": "P. aeruginosa PAO1", "experiment": "MIC, CLSI broth microdilution in BD Phoenix AST Broth", "assay_type": "cell-based, Pseudomonas aeruginosa"}, "[11]": {"test_system": "P. aeruginosa PAOΔmexZ", "experiment": "MIC, CLSI broth microdilution in BD Phoenix AST Broth", "assay_type": "cell-based, Pseudomonas aeruginosa", "details": "strain PAOΔmexZ"}, "[12]": {"test_system": "P. aeruginosa PAOΔmexR", "experiment": "MIC, CLSI broth microdilution in BD Phoenix AST Broth", "assay_type": "cell-based, Pseudomonas aeruginosa"}, "[13]": {"test_system": "P. aeruginosa 41B", "experiment": "MIC, CLSI broth microdilution in BD Phoenix AST Broth", "assay_type": "cell-based, Pseudomonas aeruginosa", "details": "strain 41B"}, "[14]": {"test_system": "P. aeruginosa 125B", "experiment": "MIC, CLSI broth microdilution in BD Phoenix AST Broth", "assay_type": "cell-based, Pseudomonas aeruginosa", "details": "strain 125B"}, "[15]": {"test_system": "P. aeruginosa PAOUW", "experiment": "MIC, CLSI broth microdilution in BD Phoenix AST Broth", "assay_type": "cell-based, Pseudomonas aeruginosa", "details": "strain PAOUW"}, "[16]": {"test_system": "P. aeruginosa 41A", "experiment": "MIC, CLSI broth microdilution in BD Phoenix AST Broth", "assay_type": "cell-based, Pseudomonas aeruginosa", "details": "strain 41A"}, "[17]": {"test_system": "PAO1 mutant MIN1_RW01_4, pmrB(F124L)", "experiment": "MIC, E-test on MHA", "assay_type": "cell-based", "details": "Pseudomonas aeruginosa, PAO1, read-out: MIC, E-test"}, "[18]": {"details": "Pseudomonas aeruginosa, agent alone, 37°C, 18–22 h, three biological replicates"}, "[19]": {"details": "antibiotic MIC alone vs with RW01 100 mg/L"}, "[20]": {"details": "antibiotic with RW01 at 100 mg/L"}, "[21]": {"details": "strain PAOUWΔoprF (printed PAOΔoprF), antibiotic with RW01 at 100 mg/L"}, "[22]": {"details": "strain PAOΔoprM, antibiotic with RW01 at 100 mg/L"}, "[23]": {"details": "strain PAO1, antibiotic with RW01 at 100 mg/L"}, "[24]": {"details": "MIC of the antibiotic with fixed 100 mg/L RW01"}, "[25]": {"details": "strain PAOΔmexR, antibiotic with RW01 at 100 mg/L"}}, "data": [{"compound": "C[C@H]1c2cccc(O)c2C(=O)C2=C(O)[C@]3(O)C(=O)C(C(N)=O)=C(O)[C@@H](N(C)C)[C@@H]3[C@@H](O)[C@@H]21", "note": "[Doxycycline, doxycycline]", "values": [{"measurement": "MIC", "setting": "[1]", "value": 64, "unit": "µg/mL"}, {"measurement": "MIC", "setting": "[2]", "value": 256, "unit": "µg/mL"}, {"measurement": "MIC in the presence of serum", "setting": "[3]; antibiotic alone", "value": "unchanged"}, {"measurement": "MIC + RW01 in the presence of serum", "setting": "[3]; antibiotic with RW01 100 mg/L", "value": "unchanged"}, {"measurement": "MIC", "setting": "[4]", "value": 256, "unit": "µg/mL"}, {"measurement": "MIC", "setting": "[5]", "value": 64, "unit": "µg/mL"}, {"measurement": "MIC", "setting": "[6]", "value": 256, "unit": "µg/mL"}, {"measurement": "MIC", "setting": "[7]; [18]", "value": 4, "unit": "µg/mL"}, {"measurement": "Potentiation (fold)", "setting": "[7]; [19]", "value": 8, "unit": "fold"}, {"measurement": "FICI", "setting": "[7]; [20]", "value": 0.320}, {"measurement": "FICI-determined effect", "setting": "[7]; [20]", "value": "Synergy (synergistic effect if FICI is ≤0.5)"}, {"measurement": "MIC", "setting": "[8]; Pseudomonas aeruginosa, strain PAOUWΔoprF, agent alone, 37°C, 18–22 h, three biological replicates", "value": 16, "unit": "µg/mL"}, {"measurement": "Potentiation (fold)", "setting": "[8]; strain PAOUWΔoprF (printed PAOΔoprF), antibiotic MIC alone vs with RW01 100 mg/L", "value": 16, "unit": "fold"}, {"measurement": "FICI", "setting": "[8]; [21]", "value": 0.160}, {"measurement": "FICI-determined effect", "setting": "[8]; [21]", "value": "Synergy (synergistic effect if FICI is ≤0.5)"}, {"measurement": "Antibiotic MIC + RW01 100 mg/L", "setting": "[8]; strain PAOUWΔoprF, MIC of the antibiotic with fixed 100 mg/L RW01", "value": 1, "unit": "µg/mL"}, {"measurement": "MIC", "setting": "[9]; Pseudomonas aeruginosa", "value": 0.5, "unit": "µg/mL"}, {"measurement": "Antibiotic MIC + RW01 100 mg/L", "setting": "[9]; strain PAOΔoprM, MIC of the antibiotic with fixed 100 mg/L RW01", "value": 0.125, "unit": "µg/mL"}, {"measurement": "Potentiation (fold)", "setting": "[9]; strain PAOΔoprM, antibiotic MIC alone vs with RW01 100 mg/L", "value": 4, "unit": "fold"}, {"measurement": "FICI", "setting": "[9]; [22]", "value": 0.348}, {"measurement": "FICI-determined effect", "setting": "[9]; [22]", "value": "Synergy (synergistic effect if FICI is ≤0.5)"}, {"measurement": "MIC", "setting": "[10]; Pseudomonas aeruginosa, PAO1, strain PAO1, agent alone, 37°C, 18–22 h, three biological replicates, read-out: MIC", "value": 16, "unit": "µg/mL"}, {"measurement": "Antibiotic MIC + RW01 100 mg/L", "setting": "[10]; strain PAO1, MIC of the antibiotic with fixed 100 mg/L RW01", "value": 1, "unit": "µg/mL"}, {"measurement": "Potentiation (fold)", "setting": "[10]; strain PAO1, antibiotic MIC alone vs with RW01 100 mg/L", "value": 16, "unit": "fold"}, {"measurement": "FICI", "setting": "[10]; [23]", "value": 0.258}, {"measurement": "FICI-determined effect", "setting": "[10]; [23]", "value": "Synergy (synergistic effect if FICI is ≤0.5)"}, {"measurement": "MIC", "setting": "[11]; [18]", "value": 64, "unit": "µg/mL"}, {"measurement": "Antibiotic MIC + RW01 100 mg/L", "setting": "[11]; [24]", "value": 4, "unit": "µg/mL"}, {"measurement": "Potentiation (fold)", "setting": "[11]; [19]", "value": 16, "unit": "fold"}, {"measurement": "FICI", "setting": "[11]; [20]", "value": 0.160}, {"measurement": "FICI-determined effect", "setting": "[11]; [20]", "value": "Synergy (synergistic effect if FICI is ≤0.5)"}, {"measurement": "MIC", "setting": "[12]; Pseudomonas aeruginosa", "value": 64, "unit": "µg/mL"}, {"measurement": "Antibiotic MIC + RW01 100 mg/L", "setting": "[12]; strain PAOΔmexR, MIC of the antibiotic with fixed 100 mg/L RW01", "value": 32, "unit": "µg/mL"}, {"measurement": "Potentiation (fold)", "setting": "[12]; strain PAOΔmexR, antibiotic MIC alone vs with RW01 100 mg/L", "value": 2, "unit": "fold"}, {"measurement": "FICI", "setting": "[12]; [25]", "value": 0.598}, {"measurement": "FICI-determined effect", "setting": "[12]; [25]", "value": "Additivity (additive effect if 0.5 < FICI ≤ 1.0)"}, {"measurement": "MIC", "setting": "[13]; [18]", "value": 16, "unit": "µg/mL"}, {"measurement": "Antibiotic MIC + RW01 100 mg/L", "setting": "[13]; [24]", "value": 2, "unit": "µg/mL"}, {"measurement": "Potentiation (fold)", "setting": "[13]; [19]", "value": 8, "unit": "fold"}, {"measurement": "FICI", "setting": "[13]; [20]", "value": 0.223}, {"measurement": "FICI-determined effect", "setting": "[13]; [20]", "value": "Synergy (synergistic effect if FICI is ≤0.5)"}, {"measurement": "MIC", "setting": "[14]; [18]", "value": 4, "unit": "µg/mL"}, {"measurement": "Antibiotic MIC + RW01 100 mg/L", "setting": "[14]; [24]", "value": 0.5, "unit": "µg/mL"}, {"measurement": "Potentiation (fold)", "setting": "[14]; [19]", "value": 8, "unit": "fold"}, {"measurement": "FICI", "setting": "[14]; [20]", "value": 0.320}, {"measurement": "FICI-determined effect", "setting": "[14]; [20]", "value": "Synergy (synergistic effect if FICI is ≤0.5)"}, {"measurement": "MIC", "setting": "[15]; Pseudomonas aeruginosa, agent alone, 37°C, 18–22 h, three biological replicates, read-out: MIC", "value": 32, "unit": "µg/mL"}, {"measurement": "Antibiotic MIC + RW01 100 mg/L", "setting": "[15]; [24]", "value": 4, "unit": "µg/mL"}, {"measurement": "Potentiation (fold)", "setting": "[15]; [19]", "value": 8, "unit": "fold"}, {"measurement": "FICI", "setting": "[15]; [20]", "value": 0.223}, {"measurement": "FICI-determined effect", "setting": "[15]; [20]", "value": "Synergy (synergistic effect if FICI is ≤0.5)"}, {"measurement": "MIC", "setting": "[16]; [18]", "value": 16, "unit": "µg/mL"}, {"measurement": "Antibiotic MIC + RW01 100 mg/L", "setting": "[16]; [24]", "value": 2, "unit": "µg/mL"}, {"measurement": "Potentiation (fold)", "setting": "[16]; [19]", "value": 8, "unit": "fold"}, {"measurement": "FICI", "setting": "[16]; [20]", "value": 0.223}, {"measurement": "FICI-determined effect", "setting": "[16]; [20]", "value": "Synergy (synergistic effect if FICI is ≤0.5)"}, {"measurement": "MIC", "setting": "[17]", "value": 96, "unit": "µg/mL"}]}]}
